In one assay the target is T1, Ras (Homo sapiens, UniProt P01112, G12V).
T1 construct: expressed in transfected cells
Kind of assay: Proliferation assay (MTS) dose-response, Ras test cell line ("FHR V12"). The format is cell-based. Particulars: Ras test cell line "FHR V12" (Fig. 7). The method, then:
(§1) FDC-P1 Zellen (Dexter et al., 1980) wurden in IMDM Medium (BioWhittaker), versetzt mit 10% hitzeinaktiviertem fötalem Kälberserum (FCS), 2 mM Glutamin, 50 µM β-Mercaptoäthanol und 1% IL-3 angesetzt und bei 37°C in 5% CO2 inkubiert. 10^7 Zellen pro Transfektion wurden 5 min bei 1200 UpM bei Raumtemperatur abzentrifugiert (Heraeus Minifuge), einmal mit serumfreiem RPMI-1640 Medium gewaschen, und in 1 ml serumfreiem Medium suspendiert. 800 µl dieser Zellsuspension wurden in einer Elektroporationsküvette mit 20 µg Plasmid pGDV12ras gemischt und mit einem einzelnen Stromstoß von 280 V, 980 µF und 1000 ms elektroporiert (Progenetor II, Hoefer Instruments). Die Zellen wurden in 10 ml Kulturmedium mit 1% IL-3 verdünnt und bei 37°C, 5% CO2 inkubiert. Zwei Tage nach der Transfektion wurden die Zellen mit frischem Medium 3-fach verdünnt und 250 µg/ml G-418 zur Selektion auf Neomycin-resistenz zugesetzt. An den darauffolgenden Tagen wurde die G-418 Konzentration auf 500, 750 und 1000 µg/ml erhöht. Tote Zellen wurden mittels Zentrifugation durch einen Ficoll-Gradienten entfernt. Dazu wurden die Zellen zuerst mittels Zentrifugation (5 min, 1200 UpM) in einem geringen Volumen aufkonzentriert und in einem Zentrifugenröhrchen über Ficoll-Paque (Pharmacia) geschichtet. […]

The target in a further assay is T2, HER-2 (Homo sapiens, UniProt P04626, V659E).
T2 construct: enthält nun die komplette kodierende Region der mutierten, konstitutiv aktiven Form HER2(V659E); expressed in transfected cells
T2 sequence (P04626 23-1255 V659E): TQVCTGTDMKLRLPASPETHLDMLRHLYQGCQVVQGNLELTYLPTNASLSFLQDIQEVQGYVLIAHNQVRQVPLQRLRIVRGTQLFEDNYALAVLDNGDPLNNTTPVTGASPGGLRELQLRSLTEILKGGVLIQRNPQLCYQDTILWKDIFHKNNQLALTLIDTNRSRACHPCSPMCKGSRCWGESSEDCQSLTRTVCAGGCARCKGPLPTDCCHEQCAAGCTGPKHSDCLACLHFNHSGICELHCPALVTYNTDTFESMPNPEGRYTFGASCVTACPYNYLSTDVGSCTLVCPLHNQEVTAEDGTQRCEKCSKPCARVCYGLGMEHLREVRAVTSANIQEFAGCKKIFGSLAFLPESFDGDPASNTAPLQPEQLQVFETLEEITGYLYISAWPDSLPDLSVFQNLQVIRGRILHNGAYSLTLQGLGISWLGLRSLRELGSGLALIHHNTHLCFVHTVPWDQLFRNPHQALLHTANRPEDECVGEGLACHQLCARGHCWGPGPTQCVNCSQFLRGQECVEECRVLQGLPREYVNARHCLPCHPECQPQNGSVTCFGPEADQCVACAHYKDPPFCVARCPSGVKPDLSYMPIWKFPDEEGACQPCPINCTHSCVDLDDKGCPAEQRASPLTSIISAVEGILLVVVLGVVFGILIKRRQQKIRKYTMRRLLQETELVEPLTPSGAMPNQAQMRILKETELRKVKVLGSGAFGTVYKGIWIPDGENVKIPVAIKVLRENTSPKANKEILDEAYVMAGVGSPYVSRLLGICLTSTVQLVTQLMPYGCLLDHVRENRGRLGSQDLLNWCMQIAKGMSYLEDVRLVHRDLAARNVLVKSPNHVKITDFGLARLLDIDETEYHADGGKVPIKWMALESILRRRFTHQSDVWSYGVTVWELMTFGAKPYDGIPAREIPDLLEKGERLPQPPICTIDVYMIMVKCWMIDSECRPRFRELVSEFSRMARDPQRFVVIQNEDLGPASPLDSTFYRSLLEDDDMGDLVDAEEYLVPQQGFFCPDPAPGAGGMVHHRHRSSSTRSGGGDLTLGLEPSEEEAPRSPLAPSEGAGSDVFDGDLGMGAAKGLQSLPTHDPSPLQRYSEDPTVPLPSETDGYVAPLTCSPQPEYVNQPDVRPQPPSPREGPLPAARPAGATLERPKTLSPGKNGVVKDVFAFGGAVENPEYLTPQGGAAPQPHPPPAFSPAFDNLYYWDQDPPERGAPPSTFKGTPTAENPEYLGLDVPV
Kind of assay: Proliferation assay (MTS) dose-response, HER-2 test cell line. The format is cell-based. Particulars: HER-2 test cell line (Fig. 7). The method, then:
FDC-P1-Zellen (Dexter et al., 1980), die IL-3-abhängig wachsen, wurden mit Plasmid pAHygCMVHer2(V659E) folgendermaßen transfiziert: Etwa 1x10^7 Zellen wurden in IMDM-Medium (Bio-Whittaker) mit 10 µg Plasmid DNA gemischt und mit einem Elektroporator (Hoefer, Progenetor II) bei 980 µF, 280 V für 1000 ms elektroporiert. Die Zellen wurden in IMDM-Medium in Anwesenheit von 10% hitzeinaktiviertem fötalem Kälberserum, 50 µM β-Mercaptoethanol, Standardantibiotika, und 1% IL-3 bei 37°C unter 5% CO2 gehalten und durch Zugabe von 300 mg/l Hygromycin B (Boehringer Mannheim) selektioniert. Nach erfolgreicher Selektion wurden die Zellen langsam von IL-3 entwöhnt, der IL-3-unabhängig wachsende Zellpool anschließend in Methocel subkloniert. Einzelne Klone wurden gepickt und in Medium ohne IL-3 hochgezogen.
Einzelne Klone wurden in einem Fluoreszenz-aktivierten Zell-Sorter (Becton-Dickinson, FACSort) auf Oberflächenexpression von HER2 getestet, dabei wurde als primärer Antikörper ein gegen die extrazelluläre Domäne von HER2 gerichteter Maus-Antikörper verwendet (Oncogene Science, c-neu (Ab-2)), und als sekundärer Antikörper ein Fluorescein Isothiocyanat (FITC)-konjugierter anti-Maus IgG Antikörper (Dianova, Hamburg). Der Subklon mit der besten Oberflächenexpression von HER2(V659E), genannt FDCP/Her2-C42#16, wurde für das Screenen verwendet. […]

In the next assay the test system is HGF-R. Kind of assay: Proliferation assay (MTS) dose-response, HGF-R test cell line ("TPRmet"). The assay is classed as cell-based, human. Particulars: HGF-R test cell line "TPRmet" (Fig. 7).
For assay [1], the system named is H-ras^Val12. Kind of assay: Detection of inhibition of Ras farnesylation (immunoprecipitation, SDS gel, Western blot) in FHRV12cc21 cells. The format is cell-based, mouse. The conditions noted are these: 5 µM, 48 h, 1% IL-3. As for the experimental part:
Nachweis der H-ras^Val12 Expression FHRV12cc21 und untransfizierte FDC-P1 Zellen wurden in IMDM Medium mit 10% FCS und 1% IL-3 gezüchtet. Zum Nachweis der Hemmung der posttranslationalen Modifikation von H-ras^Val12 durch Farnesylierung wurden die Zellen für 48 Stunden mit 5 µM des Protein-Farnesyltransferase-Inhibitors L-739.749 (Kohl et al., 1994) inkubiert. Die Zellen wurden mit PBS gewaschen und in PBSTDS (1% Triton X-100, 0.5% Natriumdesoxycholat, 0.1% Natriumdodecylsulfat in PBS) 5 min bei 4°C lysiert. Die Zellysate wurden durch Zentrifugation (20 min 14.000x g, 4°C) geklärt. Ras Proteine wurden durch Zusatz von 1 µg monoklonalen Ratten Antikörper Y13-238 (Oncogene Science) und Protein-G Plus / Protein-A Agarose (Oncogene Science) über Nacht bei 4°C immunpräzipitiert. Die Präzipitate wurden zweimal mit PBSTDS Puffer gewaschen und anschließend in SDS-Probenpuffer mit 3% β-Mercaptoethanol ausgenommen. Die Proteine wurden in einem 20%igen SDS-Polyacrylamidgel aufgetrennt, auf eine Immobilon-Membran (Millipore) transferiert und nach Absättigen der Membran mit 10% FCS, 1% Rinderserumalbumin, 1% Tween-20 in PBS, durch aufeinanderfolgende Inkubation mit einem Ras^Val12 spezifischen monoklonalen Antikörper (pan-Ras^Val12, Oncogene Science) und einem sekundären anti-Maus-IgG - Alkalische Phosphatase-Konjugat durch Färbereaktion mit NBT und BCIP (Promega) nachgewiesen. […]
On the technique in general: A western blot detects proteins with antibodies after separation by electrophoresis.

The test system of assay [2] is H-ras^Val12. Nature of the assay: Inhibition of IL-3 independent growth of H-ras^Val12 transfected FDC-P1 cells (FHRV12cc21), viability by MTS assay. The format is cell-based, mouse. The conditions noted are these: IL-3 free medium, relative absorption (Fig. 1). As for the experimental part:
as §1

In assay [3] the test system is H-ras^Val12. Nature of the assay: Inhibition of IL-3 independent growth of H-ras^Val12 transfected FDC-P1 cells (FHRV12cc21), DNA synthesis by [3H]thymidine incorporation. The conditions noted are these: IL-3 free medium (Fig. 2). The assay is classed as cell-based, mouse. The method, then: as §1
For orientation: Uptake of a labelled nucleoside into DNA is a usual measure of proliferation.

The target in another assay is EGF-Rezeptor (Homo sapiens, UniProt P00533). Nature of the assay: c-fos promoter luciferase reporter assay in KB-B4 cells, EGF-induced. The assay is classed as cell-based. Particulars: 1 ng/ml EGF, 6 h (Fig. 6). On the technique in general: In a reporter assay the amount or activity of a reporter protein is the signal.
EGF-Rezeptor, sequence (P00533 25-1210): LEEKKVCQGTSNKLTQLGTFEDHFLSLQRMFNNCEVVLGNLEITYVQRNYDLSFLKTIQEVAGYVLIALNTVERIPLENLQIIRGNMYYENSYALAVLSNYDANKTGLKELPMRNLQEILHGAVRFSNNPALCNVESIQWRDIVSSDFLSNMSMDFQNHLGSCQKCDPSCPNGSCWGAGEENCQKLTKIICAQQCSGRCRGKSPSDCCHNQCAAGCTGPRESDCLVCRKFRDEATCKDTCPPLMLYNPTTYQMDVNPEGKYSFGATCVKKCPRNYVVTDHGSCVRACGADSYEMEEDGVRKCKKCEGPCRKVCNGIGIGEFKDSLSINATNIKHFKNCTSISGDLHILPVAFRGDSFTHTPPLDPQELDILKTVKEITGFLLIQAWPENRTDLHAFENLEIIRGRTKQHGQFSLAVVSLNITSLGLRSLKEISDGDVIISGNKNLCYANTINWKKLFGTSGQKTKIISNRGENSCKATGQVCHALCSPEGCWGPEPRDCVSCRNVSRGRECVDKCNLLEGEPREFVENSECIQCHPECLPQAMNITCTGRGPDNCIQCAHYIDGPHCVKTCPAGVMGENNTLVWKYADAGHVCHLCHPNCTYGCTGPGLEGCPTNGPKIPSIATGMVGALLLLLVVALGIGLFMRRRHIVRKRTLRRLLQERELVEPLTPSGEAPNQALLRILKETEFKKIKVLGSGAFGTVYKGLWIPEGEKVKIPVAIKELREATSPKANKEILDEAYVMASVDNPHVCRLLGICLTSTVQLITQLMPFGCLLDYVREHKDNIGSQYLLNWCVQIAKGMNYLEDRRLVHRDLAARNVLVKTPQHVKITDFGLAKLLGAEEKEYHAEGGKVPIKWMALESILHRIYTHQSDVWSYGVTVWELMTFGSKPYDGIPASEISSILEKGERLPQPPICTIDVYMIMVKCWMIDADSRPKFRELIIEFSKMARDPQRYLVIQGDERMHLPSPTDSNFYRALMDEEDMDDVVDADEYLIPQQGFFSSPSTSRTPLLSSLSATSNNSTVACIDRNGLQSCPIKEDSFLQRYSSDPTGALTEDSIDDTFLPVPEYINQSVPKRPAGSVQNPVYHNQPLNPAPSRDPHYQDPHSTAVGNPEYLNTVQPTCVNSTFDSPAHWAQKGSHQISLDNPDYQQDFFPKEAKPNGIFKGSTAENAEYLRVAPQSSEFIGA

T1 sequence (P01112 1-186 G12V): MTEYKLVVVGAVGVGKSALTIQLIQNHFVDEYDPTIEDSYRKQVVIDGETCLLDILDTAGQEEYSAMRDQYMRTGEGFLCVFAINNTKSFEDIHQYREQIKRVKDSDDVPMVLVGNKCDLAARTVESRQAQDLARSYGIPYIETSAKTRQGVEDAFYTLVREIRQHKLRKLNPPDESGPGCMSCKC
Experimental for EGF-Rezeptor: Die humane epidermoide Karzinomzellinie KB (ATCC CCL 17), wurde mit Plasmid pBHfosluci folgendermaßen transfiziert: Etwa 1x10^6 Zellen pro 10 cm Platte wurden in DMEM-Medium (Bio-Whittaker) in Anwesenheit von 10% hitzeinaktiviertem fötalem Kälberserum in mehrere Platten ausgesät. Am nächsten Tag wurde 20 µg Plasmid-DNA mit Calcium-Phosphat präzipitiert und das Präzipitat langsam auf die Zellen getropft. Nach 4 Stunden wurden die Zellen für 2 min in 15% Glycerin inkubiert, gewaschen und dann in DMEM-Medium in Anwesenheit von 10% hitzeinaktiviertem fötalem Kälberserum und Standardantibiotika bei 37°C unter 5% CO2 gehalten. Die Zellen wurden durch Zugabe von 0.5 g/l G418 (GIBCO BRL) selektioniert. Einzelne G418-resistente Zellklone wurden hochgezogen und auf Induzierbarkeit der Luciferaseexpression durch Zugabe von HGF (Sigma) getestet. Ungefähr 10000 Zellen jedes Klons wurden in 6facher Ausfertigung in 200 µl pro Vertiefung in einer lichtundurchlässigen, gewebekulturbeschichteten Mikrotiterplatte mit 96 Vertiefungen (Microlite™, Dynatech Laboratories) ausgesät und über Nacht bei 37°C inkubiert. Jeweils drei Ansätze wurden mit 20 ng/ml HGF behandelt und weitere 6 h inkubiert. Anschließend wurde das Medium entfernt und die Zellen zweimal mit PBS gewaschen. […]

As to `Clc1cccc(Nc2ncnc3cnc(NC4CC4)nc23)c1` [4-[(3-Chlorphenyl)amino]-6-(cyclopropylamino)-pyrimido-[5,4-d]pyrimidin], the “Konzentration, bei der Effekte auf die Proliferation der Zellen zu messen sind, relative to IC50 on the EGF-dependent cell line” value on Ras, on HER-2 and in the assay on HGF-R was not below 100 fach in each case.
On to `CC[C@H](C)[C@@H](CO[C@@H](Cc1ccccc1)C(=O)N[C@@H](CCS(C)(=O)=O)C(=O)OC)NC[C@@H](N)CS` [L-739.749, 2(S)-{2(S)-[2(R)-Amino-3-mercapto]propylamino-3(S)-methyl}pentyloxy-3-phenylpropionylmethioninsulfonmethyl ester], for which the “Ras-Protein in der unmodifizierten (nicht farnesylierten) Form” value in the assay with H-ras^Val12 [1] was more than 50%. In the assay on H-ras^Val12 [2], the “Hemmung der H-ras^Val12 abhängigen Proliferation (Viabilität)” value is listed as “Hemmung der H-ras^Val12 abhängigen Proliferation (Viabilität)”. The “Hemmung der H-ras^Val12 abhängigen Proliferation (DNA-Synthese)” value in the assay on H-ras^Val12 [3] is on record as “Hemmung der H-ras^Val12 abhängigen Proliferation (DNA-Synthese)”.
On to `COc1cc2ncnc(Nc3cccc(C)c3)c2cc1OC` [6,7-Dimethoxy-4-(3-methylphenylamino)chinazolin], for which the “Inhibierung der Luciferase-Induktion durch EGF” value on EGF-Rezeptor is reported as “inhibitorische Wirkung”.

The values above are taken from patent EP0816848A1, “Method for comparative screening of substances with pharmacological activity” (BOEHRINGER INGELHEIM INTERNATIONAL GmbH, priority 1996, dated 1998).
